Test results published in ChEMBL document CHEMBL1158279, “Isolation and structure of leukotriene-A4 hydrolase inhibitor: 8(S)-amino-2(R)-methyl-7-oxononanoic acid produced by Streptomyces diastaticus” (J Nat Prod, 1996).

What was measured:
[1] = target: T1, Angiotensin-converting enzyme (Oryctolagus cuniculus, UniProt P12822); test: Inhibition of rabbit lung ACE
T1 sequence (P12822 whole entry): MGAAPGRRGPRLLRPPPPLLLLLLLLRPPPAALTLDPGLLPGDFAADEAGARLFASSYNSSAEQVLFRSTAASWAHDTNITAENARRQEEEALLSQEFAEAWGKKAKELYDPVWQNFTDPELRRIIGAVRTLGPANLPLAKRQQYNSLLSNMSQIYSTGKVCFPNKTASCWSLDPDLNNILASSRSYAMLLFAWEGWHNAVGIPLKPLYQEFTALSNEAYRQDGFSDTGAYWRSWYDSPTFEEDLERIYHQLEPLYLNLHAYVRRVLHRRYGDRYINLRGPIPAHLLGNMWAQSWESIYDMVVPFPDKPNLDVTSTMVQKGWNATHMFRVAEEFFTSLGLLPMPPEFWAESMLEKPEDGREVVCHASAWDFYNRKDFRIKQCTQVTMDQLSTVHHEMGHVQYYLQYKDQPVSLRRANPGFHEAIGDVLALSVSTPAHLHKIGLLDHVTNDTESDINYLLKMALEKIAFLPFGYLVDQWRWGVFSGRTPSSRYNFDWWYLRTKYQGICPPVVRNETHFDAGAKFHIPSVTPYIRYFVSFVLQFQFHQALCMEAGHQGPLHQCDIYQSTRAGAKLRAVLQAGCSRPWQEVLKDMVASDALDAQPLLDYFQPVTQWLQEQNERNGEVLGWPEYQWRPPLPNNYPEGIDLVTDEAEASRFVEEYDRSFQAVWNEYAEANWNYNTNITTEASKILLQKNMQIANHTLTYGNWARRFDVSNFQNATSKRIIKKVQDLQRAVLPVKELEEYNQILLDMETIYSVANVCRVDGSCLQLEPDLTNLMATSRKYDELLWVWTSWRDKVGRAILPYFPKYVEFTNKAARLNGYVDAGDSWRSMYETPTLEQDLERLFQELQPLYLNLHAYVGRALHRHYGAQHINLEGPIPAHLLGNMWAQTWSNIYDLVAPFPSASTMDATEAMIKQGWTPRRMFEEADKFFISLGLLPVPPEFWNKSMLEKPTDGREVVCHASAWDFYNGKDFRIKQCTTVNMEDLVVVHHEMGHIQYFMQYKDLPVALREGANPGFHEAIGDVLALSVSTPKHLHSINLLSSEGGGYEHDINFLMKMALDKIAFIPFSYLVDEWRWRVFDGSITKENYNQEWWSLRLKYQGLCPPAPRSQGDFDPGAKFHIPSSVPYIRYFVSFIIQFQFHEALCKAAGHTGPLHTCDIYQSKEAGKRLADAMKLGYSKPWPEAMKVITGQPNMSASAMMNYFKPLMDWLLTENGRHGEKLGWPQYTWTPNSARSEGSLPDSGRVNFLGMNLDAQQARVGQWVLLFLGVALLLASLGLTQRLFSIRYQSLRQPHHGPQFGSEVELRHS

[2] = target: T2, Leukotriene A-4 hydrolase (Homo sapiens, UniProt P09960); test: Inhibition of human recombinant LTA4 aminopeptidase activity spectrophotometric analysis
T2 sequence (P09960 whole entry): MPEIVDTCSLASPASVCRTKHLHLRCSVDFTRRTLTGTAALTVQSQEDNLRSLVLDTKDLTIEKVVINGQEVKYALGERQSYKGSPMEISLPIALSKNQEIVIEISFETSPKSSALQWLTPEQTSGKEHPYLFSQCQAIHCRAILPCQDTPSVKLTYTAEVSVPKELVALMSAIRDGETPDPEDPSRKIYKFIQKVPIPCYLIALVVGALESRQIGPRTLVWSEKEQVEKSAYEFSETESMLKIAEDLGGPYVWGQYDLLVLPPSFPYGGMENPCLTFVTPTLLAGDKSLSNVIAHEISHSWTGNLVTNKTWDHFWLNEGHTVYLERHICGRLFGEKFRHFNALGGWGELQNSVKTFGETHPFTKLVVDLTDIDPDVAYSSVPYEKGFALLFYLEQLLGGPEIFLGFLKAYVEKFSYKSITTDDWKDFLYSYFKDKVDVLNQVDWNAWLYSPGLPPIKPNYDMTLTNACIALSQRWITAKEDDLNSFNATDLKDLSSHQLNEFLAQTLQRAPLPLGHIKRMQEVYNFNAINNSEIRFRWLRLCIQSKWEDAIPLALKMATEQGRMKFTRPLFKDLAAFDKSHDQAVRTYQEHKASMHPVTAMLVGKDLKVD

[3] = target: T2, Leukotriene A-4 hydrolase; test: Inhibition of human recombinant LTA4 hydrolase assessed as LTB4 production after 30 mins by ELISA
Blood [4] = test: Inhibition of TxB2 production in human whole blood after 15 mins by ELISA; type: functional, tissue-based; settings: 0.25 h
Blood [5] = test: Inhibition of LTB4 production in human whole blood after 15 mins by ELISA; type: functional, tissue-based; settings: 0.25 h

**Q.** Which IC50 [1] does the source give for C[C@H](N)C(=O)CCCC[C@@H](C)C(=O)O here?
**A.** > 100 µM

**Q.** And the IC50 [2]?
**A.** 0.3 µM

**Q.** What about the IC50 [3] of the same compound?
**A.** 0.57 µM

**Q.** And the IC50 (Blood [4])?
**A.** > 30 µM

**Q.** What about the IC50 (Blood [5]) of the same compound?
**A.** 7 µM
